This note sets out measurements from ChEMBL document CHEMBL5678818, “Discovery of potent SOS1 inhibitors that block RAS activation via disruption of the RAS-SOS1 interaction” (Proc Natl Acad Sci U S A, 2019).

Assay [1] deals with T1, Serine/threonine-protein kinase TAO3 (Homo sapiens) (UniProt Q9H2K8).
T1 sequence (whole entry): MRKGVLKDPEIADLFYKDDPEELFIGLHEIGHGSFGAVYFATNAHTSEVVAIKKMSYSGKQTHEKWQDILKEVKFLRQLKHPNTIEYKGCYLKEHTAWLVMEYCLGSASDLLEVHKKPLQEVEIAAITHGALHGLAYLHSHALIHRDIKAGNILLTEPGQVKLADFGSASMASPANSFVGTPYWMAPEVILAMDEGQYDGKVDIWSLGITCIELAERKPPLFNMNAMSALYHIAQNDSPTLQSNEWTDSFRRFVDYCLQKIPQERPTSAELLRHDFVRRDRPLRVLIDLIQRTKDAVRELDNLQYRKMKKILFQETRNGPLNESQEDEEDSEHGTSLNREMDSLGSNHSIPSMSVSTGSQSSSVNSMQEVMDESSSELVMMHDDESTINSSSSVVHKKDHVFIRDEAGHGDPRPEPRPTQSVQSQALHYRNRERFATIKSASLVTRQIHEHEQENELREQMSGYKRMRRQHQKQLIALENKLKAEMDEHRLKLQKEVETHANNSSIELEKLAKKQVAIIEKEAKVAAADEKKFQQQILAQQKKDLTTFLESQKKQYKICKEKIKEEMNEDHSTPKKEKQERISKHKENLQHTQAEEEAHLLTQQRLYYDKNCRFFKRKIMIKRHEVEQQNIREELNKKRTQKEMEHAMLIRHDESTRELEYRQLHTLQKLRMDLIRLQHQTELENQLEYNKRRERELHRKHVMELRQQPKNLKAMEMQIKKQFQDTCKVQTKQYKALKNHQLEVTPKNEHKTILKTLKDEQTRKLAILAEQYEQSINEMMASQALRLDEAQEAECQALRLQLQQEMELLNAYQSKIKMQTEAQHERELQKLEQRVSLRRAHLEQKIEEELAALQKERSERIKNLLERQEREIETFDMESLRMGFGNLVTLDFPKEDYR
Put plainly: Inhibition of TAOK3 (unknown origin) assessed as residual activity at 1000 nM by KINOMEscan analysis relative to control.

Assay [2] has as its target T2, NUAK family SNF1-like kinase 2 (Homo sapiens) (UniProt Q9H093).
T2 sequence (whole entry): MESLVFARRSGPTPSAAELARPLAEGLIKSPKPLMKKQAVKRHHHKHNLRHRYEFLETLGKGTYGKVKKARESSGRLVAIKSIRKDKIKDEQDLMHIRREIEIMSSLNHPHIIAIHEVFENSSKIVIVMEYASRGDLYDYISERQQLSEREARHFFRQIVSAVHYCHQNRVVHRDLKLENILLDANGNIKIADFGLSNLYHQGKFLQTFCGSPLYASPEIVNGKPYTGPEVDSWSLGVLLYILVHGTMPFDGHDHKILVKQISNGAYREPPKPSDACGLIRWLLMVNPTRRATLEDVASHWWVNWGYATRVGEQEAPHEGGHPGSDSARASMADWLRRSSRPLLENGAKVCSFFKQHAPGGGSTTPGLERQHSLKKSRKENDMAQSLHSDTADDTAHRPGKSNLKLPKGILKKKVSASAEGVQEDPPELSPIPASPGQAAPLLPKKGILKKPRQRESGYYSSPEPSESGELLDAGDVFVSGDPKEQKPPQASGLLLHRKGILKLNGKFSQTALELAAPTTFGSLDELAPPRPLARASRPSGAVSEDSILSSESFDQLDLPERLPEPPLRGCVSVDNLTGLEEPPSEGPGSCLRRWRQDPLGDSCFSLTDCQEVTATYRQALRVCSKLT
The experiment in a line: Inhibition of SNARK (unknown origin) assessed as residual activity at 1000 nM by KINOMEscan analysis relative to control.

The target in assay [3] is Serine/threonine-protein kinase 32A (Homo sapiens) (UniProt Q8WU08). The experiment in a line: Inhibition of YANK1 (unknown origin) assessed as residual activity at 1000 nM by KINOMEscan analysis relative to control.
For assay [4], the target named is Serine/threonine-protein kinase WNK1 (Homo sapiens) (UniProt Q9H4A3). The experiment in a line: Inhibition of WNK1 (unknown origin) assessed as residual activity at 1000 nM by KINOMEscan analysis relative to control.
Assay [5] concerns the target Cyclin-dependent kinase 11B (Homo sapiens) (UniProt P21127). Put plainly: Inhibition of CDC2L1 (unknown origin) assessed as residual activity at 1000 nM by KINOMEscan analysis relative to control.
Assay [6] addresses cAMP-dependent protein kinase catalytic subunit beta (Homo sapiens) (UniProt P22694). The experiment in a line: Inhibition of PKAC-beta (unknown origin) assessed as residual activity at 1000 nM by KINOMEscan analysis relative to control.
In assay [7] the target is T3, Serine/threonine-protein kinase RIO1 (Homo sapiens) (UniProt Q9BRS2).
T3 sequence (whole entry): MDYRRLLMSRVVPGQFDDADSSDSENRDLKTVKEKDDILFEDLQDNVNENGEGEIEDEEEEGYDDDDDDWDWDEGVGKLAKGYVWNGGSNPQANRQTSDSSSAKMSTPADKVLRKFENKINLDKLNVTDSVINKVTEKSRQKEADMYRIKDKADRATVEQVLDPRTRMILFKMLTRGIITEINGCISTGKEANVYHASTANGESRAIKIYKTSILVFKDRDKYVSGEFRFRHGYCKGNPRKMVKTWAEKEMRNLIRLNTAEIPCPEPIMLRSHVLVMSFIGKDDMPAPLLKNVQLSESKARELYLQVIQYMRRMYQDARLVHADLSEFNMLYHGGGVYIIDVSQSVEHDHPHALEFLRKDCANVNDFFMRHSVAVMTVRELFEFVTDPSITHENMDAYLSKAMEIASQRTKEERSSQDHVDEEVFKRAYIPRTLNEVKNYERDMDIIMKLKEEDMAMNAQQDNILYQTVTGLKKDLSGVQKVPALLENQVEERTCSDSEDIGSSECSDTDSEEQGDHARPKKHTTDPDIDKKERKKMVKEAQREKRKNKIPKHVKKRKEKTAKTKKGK
Put plainly: Inhibition of RIOK1 (unknown origin) assessed as residual activity at 1000 nM by KINOMEscan analysis relative to control.

Sequence of Cyclin-dependent kinase 11B (Homo sapiens) (P21127 whole entry): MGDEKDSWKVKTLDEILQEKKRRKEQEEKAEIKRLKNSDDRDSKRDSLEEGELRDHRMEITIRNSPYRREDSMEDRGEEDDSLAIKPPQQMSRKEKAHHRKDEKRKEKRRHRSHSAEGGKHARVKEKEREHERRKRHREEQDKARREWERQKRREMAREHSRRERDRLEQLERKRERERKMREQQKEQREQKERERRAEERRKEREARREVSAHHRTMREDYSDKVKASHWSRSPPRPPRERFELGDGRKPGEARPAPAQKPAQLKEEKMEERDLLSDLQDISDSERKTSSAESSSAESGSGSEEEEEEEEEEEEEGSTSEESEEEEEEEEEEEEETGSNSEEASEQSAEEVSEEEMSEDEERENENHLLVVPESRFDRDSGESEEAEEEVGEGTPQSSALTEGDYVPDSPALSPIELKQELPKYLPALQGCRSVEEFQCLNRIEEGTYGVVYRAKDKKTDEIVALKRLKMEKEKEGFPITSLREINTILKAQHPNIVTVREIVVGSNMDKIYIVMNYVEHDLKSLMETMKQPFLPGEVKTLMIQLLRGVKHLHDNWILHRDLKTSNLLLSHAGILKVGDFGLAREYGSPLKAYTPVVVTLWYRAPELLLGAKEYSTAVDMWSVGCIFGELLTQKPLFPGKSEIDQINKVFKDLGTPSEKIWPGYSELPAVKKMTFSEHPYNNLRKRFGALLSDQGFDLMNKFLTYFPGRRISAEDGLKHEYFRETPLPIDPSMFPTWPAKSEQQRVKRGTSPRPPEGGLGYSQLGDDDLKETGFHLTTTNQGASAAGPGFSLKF
Sequence of Serine/threonine-protein kinase 32A (Homo sapiens) (Q8WU08 whole entry): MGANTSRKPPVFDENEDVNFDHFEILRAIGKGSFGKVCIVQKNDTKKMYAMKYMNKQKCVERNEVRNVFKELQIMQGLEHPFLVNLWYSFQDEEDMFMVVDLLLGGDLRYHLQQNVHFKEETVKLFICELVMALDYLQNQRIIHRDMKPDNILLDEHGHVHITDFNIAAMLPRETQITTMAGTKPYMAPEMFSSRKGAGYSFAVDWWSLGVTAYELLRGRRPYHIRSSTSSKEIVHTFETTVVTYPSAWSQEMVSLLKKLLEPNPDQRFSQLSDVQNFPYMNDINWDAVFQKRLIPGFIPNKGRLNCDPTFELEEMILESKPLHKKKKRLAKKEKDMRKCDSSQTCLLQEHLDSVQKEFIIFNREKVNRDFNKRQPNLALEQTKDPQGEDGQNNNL
Sequence of Serine/threonine-protein kinase WNK1 (Homo sapiens) (Q9H4A3 whole entry, looked up): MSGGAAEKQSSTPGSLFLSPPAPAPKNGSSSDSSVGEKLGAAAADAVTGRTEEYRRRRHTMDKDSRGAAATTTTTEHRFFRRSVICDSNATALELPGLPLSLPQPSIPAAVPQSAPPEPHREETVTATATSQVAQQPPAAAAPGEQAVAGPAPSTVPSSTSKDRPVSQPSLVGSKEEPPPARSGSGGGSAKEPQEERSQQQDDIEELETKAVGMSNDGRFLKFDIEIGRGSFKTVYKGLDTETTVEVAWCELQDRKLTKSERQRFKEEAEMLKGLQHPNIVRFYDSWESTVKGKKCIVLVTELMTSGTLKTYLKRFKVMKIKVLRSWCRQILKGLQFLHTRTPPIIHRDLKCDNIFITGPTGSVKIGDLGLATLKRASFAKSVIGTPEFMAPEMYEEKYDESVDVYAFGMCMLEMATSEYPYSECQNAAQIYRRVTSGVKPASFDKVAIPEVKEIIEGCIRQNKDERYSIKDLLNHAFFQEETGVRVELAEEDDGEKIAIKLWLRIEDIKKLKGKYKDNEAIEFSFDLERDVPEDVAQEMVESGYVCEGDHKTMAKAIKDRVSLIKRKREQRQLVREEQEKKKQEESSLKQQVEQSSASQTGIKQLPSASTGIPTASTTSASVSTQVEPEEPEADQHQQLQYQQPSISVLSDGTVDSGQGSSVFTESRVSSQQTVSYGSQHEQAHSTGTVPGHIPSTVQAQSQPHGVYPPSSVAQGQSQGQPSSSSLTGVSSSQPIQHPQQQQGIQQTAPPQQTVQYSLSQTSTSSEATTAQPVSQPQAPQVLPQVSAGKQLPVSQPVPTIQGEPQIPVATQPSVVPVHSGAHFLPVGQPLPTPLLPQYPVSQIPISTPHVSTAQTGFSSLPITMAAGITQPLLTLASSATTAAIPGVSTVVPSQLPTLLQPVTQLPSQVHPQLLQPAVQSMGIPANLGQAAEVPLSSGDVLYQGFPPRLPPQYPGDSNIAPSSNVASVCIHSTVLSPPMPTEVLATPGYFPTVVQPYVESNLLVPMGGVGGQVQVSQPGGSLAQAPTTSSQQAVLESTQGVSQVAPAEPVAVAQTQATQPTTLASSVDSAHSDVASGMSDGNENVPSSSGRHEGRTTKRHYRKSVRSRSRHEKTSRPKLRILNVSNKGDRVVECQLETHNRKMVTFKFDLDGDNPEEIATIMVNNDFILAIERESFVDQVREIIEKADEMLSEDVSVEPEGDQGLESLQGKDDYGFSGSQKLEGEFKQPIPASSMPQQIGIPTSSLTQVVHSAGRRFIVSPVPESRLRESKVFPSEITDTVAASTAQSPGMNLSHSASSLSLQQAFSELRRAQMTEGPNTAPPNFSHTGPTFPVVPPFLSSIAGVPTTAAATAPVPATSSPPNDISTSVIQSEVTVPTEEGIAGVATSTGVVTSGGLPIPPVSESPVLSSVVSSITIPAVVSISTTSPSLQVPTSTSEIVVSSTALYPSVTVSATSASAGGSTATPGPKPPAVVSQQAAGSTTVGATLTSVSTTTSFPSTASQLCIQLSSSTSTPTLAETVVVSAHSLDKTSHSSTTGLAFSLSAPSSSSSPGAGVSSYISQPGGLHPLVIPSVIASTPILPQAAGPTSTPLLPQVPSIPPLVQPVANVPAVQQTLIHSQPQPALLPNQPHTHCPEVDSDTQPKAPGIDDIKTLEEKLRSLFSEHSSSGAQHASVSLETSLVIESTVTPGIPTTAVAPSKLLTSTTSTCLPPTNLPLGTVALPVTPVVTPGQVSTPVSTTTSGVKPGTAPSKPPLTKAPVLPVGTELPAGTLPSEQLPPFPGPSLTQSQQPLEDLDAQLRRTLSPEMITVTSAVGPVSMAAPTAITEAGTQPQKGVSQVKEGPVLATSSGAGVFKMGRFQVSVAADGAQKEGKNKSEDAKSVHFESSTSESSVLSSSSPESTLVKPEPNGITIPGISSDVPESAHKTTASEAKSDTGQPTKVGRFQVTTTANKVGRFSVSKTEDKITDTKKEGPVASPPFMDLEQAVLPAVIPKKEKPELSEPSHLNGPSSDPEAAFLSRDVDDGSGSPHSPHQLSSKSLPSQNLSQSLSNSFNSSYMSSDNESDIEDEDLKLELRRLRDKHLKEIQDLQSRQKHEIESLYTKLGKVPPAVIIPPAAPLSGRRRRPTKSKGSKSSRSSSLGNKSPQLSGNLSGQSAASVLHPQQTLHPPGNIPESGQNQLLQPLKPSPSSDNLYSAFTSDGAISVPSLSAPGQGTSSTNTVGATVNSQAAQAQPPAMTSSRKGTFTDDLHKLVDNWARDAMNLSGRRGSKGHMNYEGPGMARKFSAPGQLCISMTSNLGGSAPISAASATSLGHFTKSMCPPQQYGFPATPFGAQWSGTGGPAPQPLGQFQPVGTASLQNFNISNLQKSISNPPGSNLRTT

With `COc1cc2ncnc(N[C@H](C)c3cccc4ccccc34)c2cc1OC`, the Activity is 79% in assay [1]; 95% in assay [2]; 86% in assay [3]; 100% in assay [4]; 83% in assay [5]; 100% in assay [6]. Also, in assay [7], the Activity came out at 82%.

On to `COc1cc2nc(C)nc(N[C@H](C)c3cccc(-c4cn[nH]c4)c3)c2cc1OC`, for which the Activity in assay [1] is 100%; in assay [2] it was 100%; in assay [3], 97%; in assay [4] it was 86%; in assay [5] it was 94%; in assay [6] it was 73%. The Activity in assay [7] amounted to 49%.
